Source: patent publication US20010053333A1, “Antimicrobial flash-dry disinfectant aerosol” (priority 2000, published 2001)

Experiment: Evaporation time for various aerosol sterilizer
Type: physicochemical
Source text: Evaporation Time for Various Aerosol Sterilizer

O [H2O]
Evaporation Time: state (1 minute): wet
Evaporation Time: state (2 minutes): wet
Evaporation Time: state (5 minutes): humid
Evaporation Time: state (15 minutes): droplets
Evaporation Time: state (30 minutes): droplets
Evaporation Time: state (40 minutes): droplets
Evaporation Time: state (45 minutes): dry
